Source: the supplement of paper PMC10307832

How the values were obtained:
Assay in all cases: relative viability (nuclei count vs DMSO), 5 days (fraction); higher = more cells survive
R406 + Foretinib = compound: COc1cc(Nc2ncc(F)c(Nc3ccc4c(n3)NC(=O)C(C)(C)O4)n2)cc(OC)c1OC [R406] + COc1cc2c(Oc3ccc(NC(=O)C4(C(=O)Nc5ccc(F)cc5)CC4)cc3F)ccnc2cc1OCCCN1CCOCC1 [Foretinib] (partner 0.25 µM)
Method in brief: (§1)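 Cells from lung cancer lines were seeded into 1536-well plates and, one day later, dosed by pin tool. Treatments were either a single drug or a fixed dose of an anchor drug with five library-drug doses (not always all listed) in √10 steps. After 5 days, nuclei were stained in a one-step fixation (final 0.05% Triton X-100, 1% formaldehyde, 1 ug/ml Hoechst) and counted on 4× images, and relative viability is the treated-to-vehicle nuclei ratio, as the median of duplicate plates.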

Daporinad + Navitoclax = compound: O=C(/C=C/c1cccnc1)NCCCCC1CCN(C(=O)c2ccccc2)CC1 [Daporinad] + CC1(C)CCC(c2ccc(Cl)cc2)=C(CN2CCN(c3ccc(C(=O)NS(=O)(=O)c4ccc(N[C@H](CCN5CCOCC5)CSc5ccccc5)c(S(=O)(=O)C(F)(F)F)c4)cc3)CC2)C1 [Navitoclax] (partner 0.5 µM)
Method in brief: as §1

R406 + Decitabine = compound: COc1cc(Nc2ncc(F)c(Nc3ccc4c(n3)NC(=O)C(C)(C)O4)n2)cc(OC)c1OC [R406] + Nc1ncn([C@H]2C[C@H](O)[C@@H](CO)O2)c(=O)n1 [Decitabine] (partner 2 µM)
Method in brief: as §1

Daporinad + Decitabine = compound: O=C(/C=C/c1cccnc1)NCCCCC1CCN(C(=O)c2ccccc2)CC1 [Daporinad] + Nc1ncn([C@H]2C[C@H](O)[C@@H](CO)O2)c(=O)n1 [Decitabine] (partner 2 µM)
Method in brief: as §1

Cell Line	relative viability (R406 + Foretinib; first compound 0.08 µM)	relative viability (R406 + Foretinib; first compound 0.253 µM)	relative viability (R406 + Foretinib; first compound 0.8 µM)	relative viability (R406 + Foretinib; first compound 2.53 µM)	relative viability (R406 + Foretinib; first compound 8 µM)	relative viability (Daporinad + Navitoclax; first compound 0.0005 µM)	relative viability (Daporinad + Navitoclax; first compound 0.001581 µM)	relative viability (Daporinad + Navitoclax; first compound 0.005 µM)	relative viability (Daporinad + Navitoclax; first compound 0.01581 µM)	relative viability (R406 + Decitabine; first compound 0.08 µM)	relative viability (R406 + Decitabine; first compound 0.253 µM)	relative viability (R406 + Decitabine; first compound 0.8 µM)	relative viability (R406 + Decitabine; first compound 2.53 µM)	relative viability (R406 + Decitabine; first compound 8 µM)	relative viability (Daporinad + Decitabine; first compound 0.0005 µM)	relative viability (Daporinad + Decitabine; first compound 0.001581 µM)	relative viability (Daporinad + Decitabine; first compound 0.005 µM)	relative viability (Daporinad + Decitabine; first compound 0.01581 µM)
NCI-H647	1.24	1.2	1.15	0.917	1.05	1.03	1.27	1.25	1.14	0.39	0.462	0.406	0.486	0.207	0.37	0.425	0.448	0.366
A-427	1.09	1.35	1.24	0.983	0.814	0.964	1.04	0.722	0.691	0.583	0.626	0.717	0.514	0.571	0.54	0.571	0.506	0.493
EMC-BAC-2	0.98	1.05	1.11	0.385	0.579	1.16	1.16	1.01	0.318	0.942	1.03	1.06	0.974	0.855	0.993	1.05	0.666	0.464
NCI-H460	0.887	1.13	1.16	1.07	0.781	1.09	1.32	0.978	0.855	0.426	0.596	0.758	0.0438	0.354	0.493	0.466	0.481	0.453
LCLC-103H	0.758	0.734	0.879	0.529	0.146					0.707	0.712	0.744	0.746	0.707	0.793	0.692	0.744	0.774
HCC-827	0.991	1.08	1.05	0.81	0.157	1.12	1.03	1.05	1.08	0.323	0.412	0.401	0.219	0.268	0.322	0.356	0.351	0.336
NCI-H1355	0.973	1.09	1.15	0.833	0.691	0.911	0.98	1.05	0.951	0.335	0.348	0.377	0.345	0.367	0.373	0.356	0.323	0.369
NCI-H1734	0.812	1.07	0.997	0.52	0.448	0.845	0.96	0.903	0.601	0.521	0.524	0.551	0.404	0.399	0.488	0.494	0.394	0.32
HARA	0.867	1.04	1.05	0.751	0.218	1.15	1.08	1.14	0.275	0.414	0.597	0.586	0.584	0.178	0.351	0.496	0.442	0.207
HCC-15	1.07	1.12	1.19	1.01	0.643	0.661	0.776	0.716	0.764	0.636	0.788	0.687	0.603	0.389	0.601	0.714	0.771	0.766
LCLC-97TM1	0.89	0.963	0.965	0.935	0.327	0.365	0.506	0.37	0.571	0.259	0.27	0.247	0.19	0.274	0.221	0.243	0.209	0.233
SK-LU-1	0.708	0.816	0.992	0.439	0.12	0.901	0.646	0.672	1.1	0.583	0.832	0.728	0.599	0.476	0.656	0.683	0.671	0.692
NCI-H1651	0.875	0.83	0.939	0.596	0.679	1.14	1.16	0.813	0.758	0.498	0.75	0.654	0.531	0.6	0.711	0.67	0.731	0.47
NCI-H1793	0.582	0.641	0.809	0.464	0.139	0.453	0.499	0.38	0.569	0.528	0.469	0.446	0.409	0.177	0.45	0.496	0.489	0.564
NCI-H2023	0.905	0.703	0.768	0.896	0.368	0.995	1.14	0.958	0.995	0.246	0.254	0.247	0.127	0.195	0.208	0.247	0.247	0.232
LC-2-ad	0.899	1.03	0.903	0.7	0.547	0.43	0.544	0.553	0.393	0.775	0.776	0.797	0.533	0.401	0.769	0.882	0.743	0.838
NCI-H1703	0.346	0.327	0.323	0.228	0.218	1.16	1.2	0.816	0.335									
NCI-H1437	1.22	1.3	1.26	1.27	1.34	1.09	1.1	1.04	1.07	0.552	0.623	0.567	0.665	0.472	0.554	0.565	0.614	0.575
SW 1573	0.908	0.915	0.887	0.932	0.665	0.897	0.991	0.755	0.457	0.398	0.579	0.604	0.186	0.172	0.472	0.499	0.406	0.197
H3255	0.868		0.872	0.878	0.673	0.483	0.429	0.584	0.695	0.656	0.589	0.714	0.571	0.458	0.464	0.605	0.863	0.816
Calu-6	0.842	0.927	0.924	0.687	0.553	0.853	0.681	0.527	0.196									
NCI-H1792						0.702	0.722	0.534	0.621	0.558	0.727	0.59	0.515	0.352	0.545	0.65	0.683	0.406

Cell Line	relative viability (R406 + Foretinib; first compound 0.08 µM)	relative viability (R406 + Foretinib; first compound 0.253 µM)	relative viability (R406 + Foretinib; first compound 0.8 µM)	relative viability (R406 + Foretinib; first compound 2.53 µM)	relative viability (R406 + Foretinib; first compound 8 µM)	relative viability (Daporinad + Navitoclax; first compound 0.0005 µM)	relative viability (Daporinad + Navitoclax; first compound 0.001581 µM)	relative viability (Daporinad + Navitoclax; first compound 0.005 µM)	relative viability (Daporinad + Navitoclax; first compound 0.01581 µM)	relative viability (R406 + Decitabine; first compound 0.08 µM)	relative viability (R406 + Decitabine; first compound 0.253 µM)	relative viability (R406 + Decitabine; first compound 0.8 µM)	relative viability (R406 + Decitabine; first compound 2.53 µM)	relative viability (R406 + Decitabine; first compound 8 µM)	relative viability (Daporinad + Decitabine; first compound 0.0005 µM)	relative viability (Daporinad + Decitabine; first compound 0.001581 µM)	relative viability (Daporinad + Decitabine; first compound 0.005 µM)	relative viability (Daporinad + Decitabine; first compound 0.01581 µM)
NCI-H2170	0.964	1.11	1	0.916	0.814	0.619	0.561	0.637	0.825	0.437	0.448	0.487	0.41	0.505	0.491	0.446	0.444	0.439
NCI-H1650	1.28	1.23	1	0.723	0.117	1.21	1.44	1.28	0.501	0.475	0.407	0.359	0.413	0.411	0.402	0.396	0.458	0.327
NCI-H2087	1.2	1.05	1.04		0.609	1.05	0.881	1.03	0.912	0.24	0.264	0.301	0.221	0.152	0.264	0.317	0.329	0.277
HCC-366	0.957	0.933	0.956	0.847	0.137	0.993	1.02	1.17	1.06	0.317	0.372	0.36	0.344	0.112	0.413		0.368	0.321
NCI-H838	0.984	1.17	1.09	0.645	0.791	1.15	1.23	0.928	0.624	0.496	0.528	0.485	0.363	0.214	0.44	0.518	0.358	0.303
NCI-H650	0.968	1.17	1.03	0.914	0.864					0.316	0.34	0.34	0.297	0.354	0.307	0.387	0.351	0.323
EBC-1	0.102	0.107	0.0997	0.118	0.122	0.347	0.4	0.405	0.389									
NCI-H2342	0.889	1.21	1.22	0.863	0.88					0.681	0.768	0.759	0.668	0.691	0.814	0.58	0.67	0.72
NCI-H358	0.75	0.795	0.886	0.335	0.156					0.224	0.211	0.222	0.119	0.125	0.215	0.256	0.233	0.194
NCI-H2228	0.798	1.01	0.972	0.567	0.337	1.05	1.1	1.09	0.945									
NCI-H1563	0.777	1	0.939	0.82	0.624													
NCI-H1623	0.931	0.952	0.962	0.806	0.849													
NCI-H1299	1.01	1.14	1.07	1.2	1.02	1.06	1.07	1.11	1.07									
NCI-H661	0.895	1.04	0.988	1	0.76					0.478	0.531	0.615	0.473	0.405	0.615	0.625	0.416	0.362
NCI-H522										0.726	0.688	0.762	0.587	0.616	0.626	0.689	0.634	0.628
CAL-12T	1.03	1.23	1.22	1.09	0.812	1.33	0.925	0.518	0.172									
NCI-H1648										0.53	0.527	0.483	0.515	0.36	0.463	0.528	0.511	0.44
SW 900	0.769	0.779	0.915	0.754	0.519					0.486	0.469	0.446	0.555	0.173	0.438		0.403	0.374
IA-LM	1.23	1.43	0.958	1.36	1.02	0.733	0.809	0.772	0.599									
ABC-1	1.08	1.03	1.03	1.15	0.781					1.02	1.21	1.03	0.793	0.736	0.807	1.33	0.987	0.911
HCC-44						1.02	0.99	1.02	0.897	0.924	1.04	0.856	1	1.05	0.921	0.988	1.04	0.95
